The source of these data is patent US10111847B2, “Compounds and methods for modulating vascular injury” (The Regents of the University of California, priority 2012, dated 2018).

In assay [1] the test system is human saphenous vein endothelial (EC) cells. The assay is described as follows: TNFα induced cellular ROS production (CellRox) in EC (Maresin-1). In kind it is cell-based. As to conditions: TNFα 1 ng/ml. The procedure: Mar-1. Cells were grown in 8-well chamber slides at a density of 15000 cells/well for 2 days for VSMCs and 50000 cells/well for 2 days for ECs in a 96 well plate. After treatments, cells were incubated with dihydroethidium (DHE, 3 μM, Invitrogen) or CellRox (Invitrogen Inc, 5 μM for ECs) in media for 30 minutes at 37° C. in a humidified chamber with 5% CO2 protected from light. DAPI nuclear counter staining was utilized for DHE staining. For DHE, fluorescence was detected with TRITC filter allowing the detection of the DHE emission wavelength of 590-620 nm. Fluorescence quantitation was performed using ImageJ analysis software. For ECs, fluorescence measurements were taken using a Spectramax M2e plate reader.
FIGS. 13A-13D. Representative merged images of DHE staining, counterstained with DAPI. (A), Negative control. (B), TNFα at 10 ng/ml for 4 hr. […] (E) Quantitative comparison of DHE staining intensity in the nucleus of human saphenous vein vascular smooth muscle (sv-VSMC) cells, treated with TNFα and 7S and 7R-Maresin-1 with and without pertussis toxin. (F) Quantitative comparison of cellular ROS production by CellRox (Life technologies, Carlsbad, Calif.) in human saphenous vein endothelial (EC) cells treated with TNFα (1 ng/nil) and 7S-Maresin-1 (N>=3). […]

The subject of assay [2] is IKKα/β subunit. The assay is described as follows: TNFα induced phosphorylation of IKKα/β in sv-ECs, western blot. In kind it is cell-based, human. As to conditions: 100 nm, 30 min; TNFα 1 ng/ml 15 min. The procedure: Mar-1. VSMCs and ECs were lysed in buffer (20 mM Tris-Hcl, 137 mM NaCl, 10% Glycerol, 1% NP-40) with protease and phosphatase inhibitors (Halt inhibitor capsules, Pierce, Inc) by sonication on ice. The lysates were instantly snap frozen in liquid nitrogen and thawed back later for western blotting. After centrifugation (15,000 g for 20 minutes), the whole cell extract (supernatant) was collected and was heated at 100° C. in Laemlli buffer for 6 minutes. Lysates were run on Mini-Protean TGX gels
(Biorad) and transferred on PVDF membranes which were probed with appropriate primary and secondary antibodies and visualized for quantitation using q-dot nanocrystals (Life Technologies, Inc).
Cells were pretreated with 100 nm of 7S/7R-Maresin-1 for 30 min, followed by TNFα (10 ng/ml for VSMC and 1 ng/ml for EC) for 15 min. Whole cell lysates were collected and probed for pan and phospho IKK (Cell Signaling Inc.).
FIG. 18. IKK-phospho and total IKK western blotting image is representative of three independent experiments. Bar graph represents net quantitative densitometry analysis. N=3. P≤0.05, One-way ANOVA with Dunnett's post hoc test. *: P≤0.05 compared to control, unpaired t-test. †: P≤0.05 compared to TNFα, unpaired t-test. Error bars: SEM.

The test system of assay [3] is inflammatory mediators. The assay is described as follows: Inflammation cytokine array of conditioned medium from sv-ECs. The format is cell-based, human. The conditions noted are these: 100 nm, 30 min; TNF α 1 ng/ml 18 hrs. The procedure:
Media was collected and incubated for 2 hr with the inflammation array membranes. The cells were harvested for protein estimation for normalization purposes. The membranes were washed following instruction protocol supplied by the manufacturer (Raybiotech Inc., Norcross, Ga.) and probed with biotinylated anti-cytokine antibody cocktail (provided by the manufacturer) for 2 hrs. The membranes were again washed with appropriate buffers provided by the manufacturer and incubated for 2 hrs with HRP-conjugated streptavidin, followed by chemiluminescence based detection of signal by Chemidoc (Biorad Inc.)
Inflammatory signals are amplified by autocrine and paracrine pathways that include the elaboration of pro-inflammatory mediators into the local extracellular milieu. Cells grown in 6 cm dish were serum starved for 24 hrs. The cells were then pre-treated with 100 nm 7S-Maresin-1 for 30 min followed by 18 hrs of TNF α (1 ng/ml). Cell culture media was collected and incubated with human inflammation cytokine array membranes (AAH-INF-3-4, Raybiotech Inc.), coated with antibodies (in duplicate) recognizing 40 different inflammatory mediators.
FIGS. 19A-19C. (A, B) Representative membrane images from a set of three pairs. (C) Densitometric quantitation of each of the attenuated inflammatory mediators in three independent experiments was performed and is represented in the bar graph. […]

In assay [4] the test system is VSMC. The assay is described as follows: TNF-α-induced superoxide production (DHE) in VSMC (RvD1). The format is cell-based, human. As to conditions: 10 and 100 nM; TNF-α 10 ng/ml 4 hours. The procedure: RvD1. Cells are seeded and grown on chamber slides at a density of 10,000 cells per chamber for 2 days, followed by treatment with 10 ng/ml TNF-α with or without RvD1 (10 and 100 nM) in serum-free media for 4 hours. After incubation cells are incubated with DHE (5 μmol/L, Invitrogen) in PBS for 30 minutes at 37° C. in a humidified chamber protected from light. DAPI nuclear counter staining is utilized. For frozen section 30-μm-thick sections are incubated with DHE (10 μmol/L) in PBS for 30 minutes at the same condition described above. Fluorescence was detected with TRITC filter allowing the detection of the DHE emission wavelength of 590-620 nm. The fluorescence lamp gain is standardized for all images and analyses. Fluorescence quantitation is performed using ImageJ analysis software (National Institute of Health, Bethesda, Md.). For VSMC the fluorescence intensity is determined for the DHE-stained control cells (no treatment control) from each experimental group and then individual treated cells from the same group are normalized to the corresponding value. For frozen sections the fluorescence intensity is determined for the DHE-stained control vessels (uninjured abdominal aorta) from each experimental group and then individual treated vessels from the same group are normalized to the corresponding value. […]

In the case of `CC/C=C\C/C=C\C[C@H](O)\C=C/C=C/C=C/[C@@H](O)C/C=C\CCC(=O)O` [7S-Maresin-1, 7S,14R-dihydroxydocosa-4Z,8E,10Z,12Z,16Z,19Z-hexaenoic acid], the “TNF-α-induced superoxide production in EC” value in assay [1] is recorded as “significantly reduced”. Besides, the “TNFα induced phosphorylation of IKKα/β subunit in human sv-ECs” value in assay [2] was “Reduce”. In addition, the “levels of multiple inflammatory mediators in conditioned medium from EC” value in assay [3] was “reduced”.
For `CC/C=C\C[C@H](O)/C=C/C=C\C=C\C=C\[C@@H](O)[C@@H](O)C/C=C\CCC(=O)O` [RvD1, Resolvin D1], the “TNF-α-induced superoxide production in VSMC” value in assay [4] is “significantly reduced”.
